This note sets out measurements from patent US7847123B2, “Antimicrobial compositions” (Evonik Goldschmidt GmbH, priority 2006, dated 2010).

Experiment [1] concerns C. xerosis. Nature of the experiment: Antimicrobial effect: germ count over time in 0.3% by weight aqueous solution of test substance. Type of experiment: cell-based, Corynebacterium xerosis. The following applies: 0.3% by weight in water, 37° C.; for germ count CFU/ml, 0 hours: directly after addition (0 h). The protocol: (§1) 20 ml of a 0.3% by weight solution of the test substance listed below in the table in water was inoculated with 200 μl of a fresh 48 hour culture of C. xerosis or S. epidermidis and incubated for three days at 37° C. Directly after the addition, as well as after 1, 3, 24 and 48 hours, samples, each of 1 ml, were taken and the germ count was determined.

Experiment [2] has as its system S. epidermidis. Described as above. It is filed as cell-based, Staphylococcus epidermidis. The following applies: 0.3% by weight in water, 37° C.; for germ count CFU/ml, 0 hours: directly after addition (0 h). As for the experimental part:
as §1

Experiment [3] deals with C. xerosis. Description: pH dependency of the antimicrobial effect: germ count in buffered solutions. It is filed as cell-based, Corynebacterium xerosis. The protocol:
as §1
(§2) The antimicrobial effect of octyllactamide in buffered solutions was tested correspondingly to example 8 at various pH values.

Experiment [4] deals with S. epidermidis. The experiment is described as above. Type of experiment: cell-based, Staphylococcus epidermidis. The protocol: as §1, §2

“PEG-10-octyllactamide [Octyl-PEG-10-lactamide]”: in the experiment on C. xerosis [1], the “germ count CFU/ml, 1 hour” value is given as 4.5E+5 CFU/ml; the “germ count CFU/ml, 3 hours” value was 1.8E+5 CFU/ml; the “germ count CFU/ml, 24 hours” value is listed as 1.6E+3 CFU/ml; the “germ count CFU/ml, 48 hours” value is reported as below 2.0E+2 CFU/ml. In addition, in the experiment on C. xerosis [1], the “germ count CFU/ml, 0 hours” value stood at 9.1E+5 CFU/ml. In the experiment on S. epidermidis [2], the “germ count CFU/ml, 1 hour” value was 2.3E+6 CFU/ml; the “germ count CFU/ml, 3 hours” value is 9.3E+6 CFU/ml; the “germ count CFU/ml, 24 hours” value worked out at 8.1E+4 CFU/ml; the “germ count CFU/ml, 48 hours” value is recorded as below 2.0E+2 CFU/ml. Moreover, the “germ count CFU/ml, 0 hours” value in the experiment with S. epidermidis [2] is 1.9E+7 CFU/ml.

`CCCCCCCCNC(=O)C(C)O` (stereo not shown) [Octyllactamide, N-octyllactamide]: the “germ count CFU/ml, 0 hours” value in the experiment on C. xerosis [3] (buffered solution pH 4.5, 0 h) stood at 1.0E+6 CFU/ml; in the experiment on C. xerosis [3] (buffered solution pH 5.5, 0 h) it was 1.0E+6 CFU/ml; in the experiment with C. xerosis [3] (buffered solution pH 6.9, 0 h) it was 7.3E+5 CFU/ml; in the experiment with C. xerosis [1] it was 9.1E+5 CFU/ml; in the experiment with S. epidermidis [4] (buffered solution pH 4.5, 0 h) it was 3.7E+6 CFU/ml; in the experiment with S. epidermidis [4] (buffered solution pH 5.5, 0 h) it was 3.7E+6 CFU/ml. Moreover, the “germ count CFU/ml, 0 hours” value in the experiment with S. epidermidis [4] (buffered solution pH 6.9, 0 h) was determined as 3.1E+6 CFU/ml; in the experiment with S. epidermidis [2], 1.9E+7 CFU/ml. The “germ count CFU/ml, 1 hour” value with C. xerosis [3] (buffered solution pH 4.5, 1 h) turned out to be 5.5E+4 CFU/ml; in the experiment with C. xerosis [3] (buffered solution pH 5.5, 1 h), 1.8E+5 CFU/ml; in the experiment with C. xerosis [3] (buffered solution pH 6.9, 1 h) it was 3.3E+3 CFU/ml; in the experiment on C. xerosis [1] it was 1.5E+4 CFU/ml; with S. epidermidis [4] (buffered solution pH 4.5, 1 h), 2.1E+6 CFU/ml; in the experiment with S. epidermidis [4] (buffered solution pH 5.5, 1 h), 1.7E+6 CFU/ml. Further, the “germ count CFU/ml, 1 hour” value was determined as 1.5E+6 CFU/ml in the experiment with S. epidermidis [4] (buffered solution pH 6.9, 1 h) and 3.7E+6 CFU/ml in the experiment on S. epidermidis [2]. Moreover, the “germ count CFU/ml, 3 hours” value with C. xerosis [3] (buffered solution pH 4.5, 3 h) was below 2.0E+2 CFU/ml; in the experiment with C. xerosis [3] (buffered solution pH 5.5, 3 h) it was 3.5E+4 CFU/ml; in the experiment on C. xerosis [3] (buffered solution pH 6.9, 3 h), below 2.0E+2 CFU/ml; in the experiment on C. xerosis [1], below 2.0E+2 CFU/ml; in the experiment on S. epidermidis [4] (buffered solution pH 4.5, 3 h), 7.9E+4 CFU/ml; in the experiment with S. epidermidis [4] (buffered solution pH 5.5, 3 h) it was 4.7E+3 CFU/ml. For the same compound, the “germ count CFU/ml, 3 hours” value in the experiment with S. epidermidis [4] (buffered solution pH 6.9, 3 h) is reported as 5.7E+4 CFU/ml; in the experiment on S. epidermidis [2], 3.0E+6 CFU/ml. Further, the “germ count CFU/ml, 24 hours” value with C. xerosis [3] (buffered solution pH 4.5, 24 h) is listed as below 2.0E+2 CFU/ml; in the experiment on C. xerosis [3] (buffered solution pH 5.5, 24 h), below 2.0E+2 CFU/ml; in the experiment with C. xerosis [3] (buffered solution pH 6.9, 24 h) it was below 2.0E+2 CFU/ml; in the experiment on C. xerosis [1], below 2.0E+2 CFU/ml; in the experiment with S. epidermidis [4] (buffered solution pH 4.5, 24 h) it was below 2.0E+2 CFU/ml; in the experiment on S. epidermidis [4] (buffered solution pH 5.5, 24 h), below 2.0E+2 CFU/ml. Moreover, the “germ count CFU/ml, 24 hours” value is given as below 2.0E+2 CFU/ml in the experiment on S. epidermidis [4] (buffered solution pH 6.9, 24 h) and 2.3E+6 CFU/ml in the experiment on S. epidermidis [2]. For the same compound, the “germ count CFU/ml, 48 hours” value with C. xerosis [3] (buffered solution pH 4.5, 48 h) was below 2.0E+2 CFU/ml; with C. xerosis [3] (buffered solution pH 5.5, 48 h), below 2.0E+2 CFU/ml; with C. xerosis [3] (buffered solution pH 6.9, 48 h), below 2.0E+2 CFU/ml; in the experiment on C. xerosis [1], below 2.0E+2 CFU/ml; in the experiment with S. epidermidis [4] (buffered solution pH 4.5, 48 h) it was below 2.0E+2 CFU/ml; in the experiment with S. epidermidis [4] (buffered solution pH 5.5, 48 h) it was below 2.0E+2 CFU/ml. The “germ count CFU/ml, 48 hours” value in the experiment on S. epidermidis [4] (buffered solution pH 6.9, 48 h) is reported as below 2.0E+2 CFU/ml; in the experiment with S. epidermidis [2], 8.5E+5 CFU/ml.

Regarding “PEG-3-octyllactamide [Octyl-PEG-3-lactamide]”, in the experiment on C. xerosis [1], the “germ count CFU/ml, 1 hour” value worked out at 6.3E+4 CFU/ml; the “germ count CFU/ml, 3 hours” value turned out to be 3.7E+3 CFU/ml; the “germ count CFU/ml, 24 hours” value is recorded as below 2.0E+2 CFU/ml; the “germ count CFU/ml, 48 hours” value is on record as below 2.0E+2 CFU/ml. The “germ count CFU/ml, 0 hours” value with C. xerosis [1] worked out at 9.1E+5 CFU/ml. Moreover, in the experiment on S. epidermidis [2], the “germ count CFU/ml, 1 hour” value is given as 4.1E+6 CFU/ml; the “germ count CFU/ml, 3 hours” value was 3.1E+6 CFU/ml; the “germ count CFU/ml, 24 hours” value is given as below 2.0E+2 CFU/ml; the “germ count CFU/ml, 48 hours” value is on record as below 2.0E+2 CFU/ml. For the same compound, the “germ count CFU/ml, 0 hours” value in the experiment with S. epidermidis [2] was 1.9E+7 CFU/ml.

Regarding `CCCCCCNC(=O)C(C)O` (stereo not shown) [Hexyllactamide, N-Hexyllactamide], in the experiment with C. xerosis [1], the “germ count CFU/ml, 1 hour” value is 5.5E+5 CFU/ml; the “germ count CFU/ml, 3 hours” value amounted to 2.6E+3 CFU/ml; the “germ count CFU/ml, 24 hours” value is below 2.0E+2 CFU/ml; the “germ count CFU/ml, 48 hours” value was below 2.0E+2 CFU/ml. In addition, in the experiment with C. xerosis [1], the “germ count CFU/ml, 0 hours” value was 2.5E+6 CFU/ml. Besides, in the experiment with S. epidermidis [2], the “germ count CFU/ml, 1 hour” value is recorded as 1.7E+6 CFU/ml; the “germ count CFU/ml, 3 hours” value came out at 7.1E+5 CFU/ml; the “germ count CFU/ml, 24 hours” value is given as below 2.0E+2 CFU/ml; the “germ count CFU/ml, 48 hours” value is reported as below 2.0E+2 CFU/ml. The “germ count CFU/ml, 0 hours” value with S. epidermidis [2] was 8.6E+6 CFU/ml.
